Literature values, collected in patent US20100129295A1, “Compositions for preventing and/or treating gingivitis” (priority 2008, published 2010).

Assays:
TNF-α = TNF-α (Homo sapiens, UniProt P01375)
[1] = females taking supplements; 27 females with gingivitis compared with women without
[2] = tested on: TNF-α induced cellular responses

Sequence of TNF-α (P01375 whole entry, species assumed): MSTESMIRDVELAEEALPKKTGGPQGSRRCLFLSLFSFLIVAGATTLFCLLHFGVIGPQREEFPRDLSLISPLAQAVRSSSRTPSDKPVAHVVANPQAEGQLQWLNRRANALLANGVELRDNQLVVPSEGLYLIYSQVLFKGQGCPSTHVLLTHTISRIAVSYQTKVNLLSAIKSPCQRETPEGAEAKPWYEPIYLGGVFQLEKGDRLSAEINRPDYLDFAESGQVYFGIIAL

With C/C(O)=C(\C#N)C(=O)Nc1ccc(C(F)(F)F)cc1 [A 771726, teriflunomide] as the compound, how does the “TNF-α and IL-1 from Kupffer cells” value (Kupffer cells) read?
Its value is “inhibits”.

For Cc1cc(C(=O)Nc2ccc(Cl)cc2)no1 [UTL-5d], which “inhibition of TNF-α” value (TNF-α) is on record?
The value was “inhibition”.

Which risk of gingivitis [1] does the source give for [Ca+2] [calcium] here?
The risk of gingivitis was “reduced risk”.

For Cc1oncc1C(=O)Nc1ccc(C(F)(F)F)cc1 [leflunomide], which “TNF-α induced cellular responses” value [2] is on record?
The value was “suppresses”.

Which risk of gingivitis [1] does the source give for Cc1cc2nc3c(=O)[nH]c(=O)nc-3n(C[C@H](O)[C@H](O)[C@H](O)CO)c2cc1C [vitamin B2] here?
Its risk of gingivitis is “reduced risk”.
